The values that follow come from article PMC8780434 (Viruses, 2022).

Data set [1] concerns EV71. In words: Western blot of viral VP1 in EV71-infected RD cells. Particulars: for VP1/Tubulin (%): EV71 MOI 1, 6 h, DMSO = 100; for antiviral activity against EV71 infections, rank among SSRIs: 5 or 10 μM, Western blot.
Data set [2] is described as follows: Cell viability assay (CellTiter 96 AQueous) in HeLa cells. Particulars: human.
A short description of data set [3]: Secondary screening cell cytotoxicity. Particulars: at 10 μM, secondary screening criterion.
Data set [4] deals with EV71. In words: Immunofluorescence assay (IFA) of anti-EV71 potency. Format: cell-based, EV71 (strain BrCr). Particulars: Enterovirus A, EV71 MOI 0.1, 12 h p.i.
The nature of data set [5]: Cell viability assay (CellTiter 96 AQueous) in RD cells. The note with it: human.
The conditions of data set [6]: human, 12 h, 10 μM.
The nature of data set [7]: in vitro. Particulars: human.
The nature of data set [8]: in vitro. Particulars: human. This is another data set of the same source.
For data set [9], the system named is EV71. The note with it: active in the range of several mM; cited from earlier work.
Data set [10] concerns EV71. Briefly: Low-pH exposure assay (Western blot and plaque assay). Format: cell-based, EV71 (strain BrCr). The note with it: 10 μM; for times more viral titer than the sertraline-treated pH 7.4 control: 12 h.
The test system of data set [11] is EV71. In words: Virus internalization assay (RT-qPCR). The note with it: RD cells, 5 or 10 μM, 37 °C 1 h after binding, trypsinized, MOI 5.
Data set [12] relates to EV71. In words: Virus binding assay (RT-qPCR). The note with it: RD cells, 5 or 10 μM, 0 °C 1 h, MOI 5. A general note: In qPCR the cycle at which signal appears reflects the starting amount.
Details of data set [13]: method as in earlier work. The note with it: cited from earlier work.
For data set [14], the system named is EV71. In words: Time-of-addition assay (RT-qPCR of viral RNA). Format: cell-based, EV71 (strain BrCr). The note with it: RD cells, 10 μM, MOI 0.1, RT-qPCR.
For data set [15], the system named is EV71. In words: FRET-based biosensor drug screening (HeLa-G2AwtR cells) for EV71 inhibitors. Format: cell-based, EV71 (strain BrCr). The note with it: Enterovirus A, read-out: inhibition rate.
The mark [16] stands for this setting: 5 μM drug, HeLa-G2AwtR cells, EV71 MOI 1, 12 h.

Molecules are shown by their SMILES. Values joined by “and” are separate entries in the source; they are usually repeats but may differ in a detail not shown here. Equal entries are not always repeated. Where two headings read alike, the source gives them in different places. Some results are limits rather than exact numbers.

On to `CN(C)CCCN1c2ccccc2Sc2ccc(Cl)cc21` [CPZ, chlorpromazine], for which the “VP1/Tubulin (%)” value was found to be 109% in [1] (5 μM) and 54% in data set [1] (10 μM).

With `CCN(CC)CCCC(C)Nc1ccnc2cc(Cl)ccc12` (stereo not shown) [CQ, chloroquine], the “VP1/Tubulin (%)” value came out at 52% in [1] (5 μM) and 15% in [1] (10 μM).

For `COCCCC/C(=N\OCCN)c1ccc(C(F)(F)F)cc1` [FLX, fluvoxamine], the “VP1/Tubulin (%)” value is reported as 82% in data set [1] (5 μM) and 77% in data set [1] (10 μM). Further, the “antiviral activity against EV71 infections, rank among SSRIs” value in [1] is reported as “weakest antiviral activity”.

In the case of `CCCCCCCCc1ccc(CCC(N)(CO)CO)cc1` [Fingolimod], the figures for the CC50 at 12 h in data set [2] and in data set [5] were 21.8 µM and 24.5 µM, respectively. In data set [3], the cell cytotoxicity is given as below 20%. In addition, the IC50 in data set [4] (HeLa cells) was found to be 2.94 µM; in [4] (RD cells), 3.59 µM.

For `Oc1c(Cl)cc(Cl)c(Cl)c1Cc1c(O)c(Cl)cc(Cl)c1Cl` [Hexachorophene, Hexachlorophene], the cell cytotoxicity in data set [3] is below 20%.

Turning to `OC(c1cc(C(F)(F)F)nc2c(C(F)(F)F)cccc12)C1CCCCN1` (stereo not shown) [Mefloquine], the IC50 in data set [4] (HeLa cells) was 3.25 µM; in data set [4] (RD cells) it was 3.89 µM. Also, in data set [6], the cell cytotoxicity is on record as below 20%. Also, the values for the CC50 at 12 h in [7] and in [8] were 29.8 µM and 30 µM, respectively.

With `Cl.N` [NH4Cl], the “antiviral effect compared with sertraline and chloroquine” value in data set [9] is “much weaker antiviral effect”.

In the case of `OC(CNCC(O)C1CCc2cc(F)ccc2O1)C1CCc2cc(F)ccc2O1` (stereo not shown) [Nebivolol], the IC50 in data set [4] (HeLa cells) was found to be 4.17 µM; in data set [4] (RD cells) it was 4.74 µM. The cell cytotoxicity in [6] is below 20%. Also, the CC50 at 12 h in [7] was 32.7 µM; in [8], 32.9 µM.

`Fc1ccc([C@@H]2CCNC[C@H]2COc2ccc3c(c2)OCO3)cc1` [PAR, paroxetine]: the results for the “VP1/Tubulin (%)” value in data set [1] (5 μM) and in data set [1] (10 μM) were 74% and 48%, respectively.

`CN[C@H]1CC[C@@H](c2ccc(Cl)c(Cl)c2)c2ccccc21` [Sertraline]: the “times more viral titer than the sertraline-treated pH 7.4 control” value in data set [10] (HeLa cells, pH 5 medium 10 min) is on record as 13.4 times; in [10] (HeLa cells, pH 5.5 medium 10 min) it was 4 times; in data set [10] (RD cells, pH 5 medium 10 min), 16 times; in [10] (RD cells, pH 5.5 medium 10 min) it was 5.7 times. Also, the “viral replication at the levels of viral protein after low-pH shocks” value in data set [10] (RD and HeLa cells, pH 5.5 and 5, 6 h p.i., Western blot) was “markedly rescued”. In addition, in data set [11], the “viral RNA levels, virus internalization, versus drug-free control” value was “undetectable difference”. The “VP1/Tubulin (%)” value is reported as 58% in data set [1] (5 μM) and 10% in [1] (10 μM). The “antiviral activity against EV71 infections, rank among SSRIs” value in [1] is given as “strongest inhibitory effect”. In addition, the “viral RNA levels, virus binding, versus drug-free control” value in data set [12] was “undetectable difference”. Further, in data set [13], the “maximum concentration in human plasma” value is “approximately 200 ng/mL and ~ 654 nM”. Further, the “viral RNA levels, post-entry step” value in data set [14] (drug present 2-12 h) was “negligible effect”. Besides, in data set [14] (drug present -2 to 2 h), the “viral RNA levels, entry step” value was “profound reduction”. In addition, in data set [6], the cell cytotoxicity is recorded as below 20%.

As to `COc1cccc2c1C(=O)c1c(O)c3c(c(O)c1C2=O)C[C@@](O)(C(C)=O)C[C@@H]3O[C@H]1C[C@H](N)[C@H](O)[C@H](C)O1` [daunorubicin], the inhibition at 5 µM in data set [15] (EV71, 12 h) is above 50%.

With `COc1cccc2c1C(=O)c1c(O)c3c(c(O)c1C2=O)C[C@@](O)(C(=O)CO)C[C@@H]3O[C@H]1C[C@H](N)[C@H](O)[C@H](C)O1` [doxorubicin], the inhibition at 5 µM in data set [15] (setting [16]) is above 50%.

Turning to `COc1cccc2c1C(=O)c1c(O)c3c(c(O)c1C2=O)C[C@@](O)(C(=O)CO)C[C@@H]3O[C@H]1C[C@H](N)[C@@H](O)[C@H](C)O1` [epirubicin], the inhibition at 5 µM in data set [15] (setting [16]) is above 50%.

Regarding `Nc1ccn([C@@H]2O[C@H](CO)[C@@H](O)C2(F)F)c(=O)n1` [gemcitabine], the inhibition at 5 µM in [15] (setting [16]) was above 50%.

As to `CC(=O)[C@]1(O)Cc2c(O)c3c(c(O)c2[C@@H](O[C@H]2C[C@H](N)[C@H](O)[C@H](C)O2)C1)C(=O)c1ccccc1C3=O` [idarubicin], the inhibition at 5 µM in data set [15] (setting [16]) was above 50%.

Regarding `O=C1c2c(O)ccc(O)c2C(=O)c2c(NCCNCCO)ccc(NCCNCCO)c21` [mitoxantrone], the inhibition at 5 µM in [15] (setting [16]) was above 50%.

As usually defined, the IC50 is the concentration that gives 50% inhibition. Higher therefore signals weaker potency. One may read the inhibition as the change of the read-out against control, counted positive when it falls.
